According to patent publication US20220402862A1 (Intellia Therapeutics, Inc., priority 2019, published 2022):

Legend:
[1] = RNA encapsulation efficiency of LNPs (Ribogreen fluorescence assay); assay type: physicochemical; conditions: LNP, sg:mRNA 1:1, N/P about 6, amine lipid/DSPC/cholesterol/PEG-2k-DMG 50/9/38/3; Table 2, Experiments 2-20
Procedure: A fluorescence-based assay (Ribogreen®, ThermoFisher Scientific) is used to determine total RNA concentration and free RNA. Encapsulation efficiency is calculated as (Total RNA-Free RNA)/Total RNA. LNP samples are diluted appropriately with 1× TE buffer containing 0.2% Triton-X 100 to determine total RNA or 1× TE buffer to determine free RNA. Standard curves are prepared by utilizing the starting RNA solution used to make the compositions and diluted in 1× TE buffer +/− 0.2% Triton-X 100. Diluted RiboGreen® dye (according to the manufacturer's instructions) is then added to each of the standards and samples and allowed to incubate for approximately 10 minutes at room temperature, in the absence of light. A SpectraMax M5 Microplate Reader (Molecular Devices) is used to read the samples with excitation, auto cutoff and emission wavelengths set to 488 nm, 515 nm, and 525 nm respectively. Total RNA and free RNA are determined from the appropriate standard curves.
Encapsulation efficiency is calculated as (Total RNA-Free RNA)/Total RNA. The same procedure may be used for determining the encapsulation efficiency of a DNA-based cargo component. In a fluorescence-based assay, for single-strand DNA Oligreen Dye may be used, and for double-strand DNA, Picogreen Dye. Alternatively, the total RNA concentration can be determined by a reverse-phase ion-pairing (RP-IP) HPLC method. Triton X-100 is used to disrupt the LNPs, releasing the RNA. The RNA is then separated from the lipid components chromatographically by RP-IP HPLC and quantified against a standard curve using UV absorbance at 260 nm.

[2] = Dynamic light scattering of LNPs: Z-average diameter, number average diameter, PDI; assay type: physicochemical; conditions: LNP, sg:mRNA 1:1, N/P about 6, 50/9/38/3; Table 2, Experiments 2-20
Procedure: Dynamic Light Scattering (“DLS”) is used to characterize the polydispersity index (“PDI”) and size of the LNPs of the present disclosure. DLS measures the scattering of light that results from subjecting a sample to a light source. PDI, as determined from DLS measurements, represents the distribution of particle size (around the mean particle size) in a population, with a perfectly uniform population having a PDI of zero.
LNP compositions are analyzed for average particle size, polydispersity index (PDI), total RNA content, encapsulation efficiency of RNA, and zeta potential. LNP compositions may be further characterized by lipid analysis, AF4-MALS, NTA, and/or cryo-EM. Average particle size and polydispersity are measured by dynamic light scattering (DLS) using a Malvern Zetasizer DLS instrument or Wyatt NanoStar. LNP samples were diluted with PBS buffer prior to being measured by DLS. Z-average diameter which is an intensity-based measurement of average particle size is reported along with number average diameter and PDI. A Malvern Zetasizer or Wyatt NanoStar instrument is also used to measure the zeta potential of the LNP. Samples are diluted 1:17 (50 μL into 800 μL) in 0.1× PBS, pH 7.4 prior to measurement.

[3] = tested on: Transthyretin (TTR); test: Serum TTR ELISA in mice after LNP dosing; assay type: in vivo, CD-1 female mice; conditions: guide G282 experiments; for Serum TTR % TSS: mouse serum TTR relative to TSS control; for Serum TTR: mouse serum, ELISA
Procedure: CD-1 female mice ranging from 6-10 weeks of age were used in each study. Animals were weighed and grouped according to body weight for preparing dosing solutions based on group average weight. LNPs were dosed via the lateral tail vein in a volume of 0.2 mL per animal (approximately 10 mL per kilogram body weight). The animals were periodically observed for adverse effects for at least 24 hours post dose. For studies measuring in vivo editing in liver, CD-1 female mice were dosed at 0.1 mg/kg unless otherwise noted. Animals were euthanized at 6 or 7 days by ex sanguination via cardiac puncture under isoflurane anesthesia. Liver tissue was collected from each animal for DNA extraction and analysis. Blood was collected into serum separator tubes or into tubes containing buffered sodium citrate for plasma as described herein. Cohorts of mice were measured for editing by Next-Generation Sequencing (NGS).
Blood was collected and the serum was isolated as indicated. The total mouse TTR serum levels were determined using a Mouse Prealbumin (Transthyretin) ELISA Kit (Aviva Systems Biology, Cat. OKIA00111). Briefly, sera were serial diluted with kit sample diluent to a final dilution of 10,000-fold for 0.1 mg/kg dose and final dilutions of 10,000-fold and of 2,500-fold for 0.3 mg/kg. This diluted sample was then added to the ELISA plates and the assay was carried out according to the manufacturer's directions.

[4] = pKa measurement of unformulated amine lipid (fluorescence, method of Jayaraman et al.); assay type: physicochemical; conditions: 100 μM in 0.1 M phosphate buffer, pH 2.0-12.0
Procedure: The pKa of each amine lipid was determined according to the method in Jayaraman, et al. (Angewandte Chemie, 2012) with the following adaptations. […] Lipid was diluted to 100 μM in 0.1 M phosphate buffer (Boston Bioproducts) where the pH ranged from 2.0-12.0. Fluorescence intensity was measured using excitation and emission wavelengths of 321 nm and 448 nm.

Row | SMILES | Encapsulation (%) [1] | Number mean (nm) [2] | PDI [2] | Z-avg (nm) [2] | Serum TTR % TSS [3] | Serum TTR [3] | pKa [4]
1 | CCCCC/C=C\C/C=C\CCCCCCCC(=O)OCC(COC(=O)CCC(OCCCCCCCC)OCCCCCCCC)COC(=O)OCC1CCCN1C (stereo not drawn) [Compound 14, 3-((4,4-bis(octyloxy)butanoyl)oxy)-2-(((((1-methylpyrrolidin-2-yl)methoxy)carbonyl)oxy)methyl)propyl (9Z,12Z)-octadeca-9,12-dienoate] | 93% | 45.18 nm | 0.091 | 64.69 nm | 88% | 908 µg/mL | 
2 | CCCCC/C=C\C/C=C\CCCCCCCC(=O)OCC(COC(=O)CCC(OCCCCCCCC)OCCCCCCCC)COC(=O)OC1CCN(CC)CC1 (stereo not drawn) [Compound 17, 3-((4,4-bis(octyloxy)butanoyl)oxy)-2-(((((1-ethylpiperidin-4-yl)oxy)carbonyl)oxy)methyl)propyl (9Z,12Z)-octadeca-9,12-dienoate] | 98% | 56.58 nm | 0.037 | 70.97 nm | 70% | 727 µg/mL | 
3 | CCCCC/C=C\C/C=C\CCCCCCCC(=O)OCC(COC(=O)CCC(OCCCCCCCC)OCCCCCCCC)COC(=O)OCCN(C)C (stereo not drawn) [Compound 18, 3-((4,4-bis(octyloxy)butanoyl)oxy)-2-((((2-(dimethylamino)ethoxy)carbonyl)oxy)methyl)propyl (9Z,12Z)-octadeca-9,12-dienoate] | 97% | 48.22 nm | 0.090 | 68.72 nm | 82% | 849 µg/mL | 
4 | CCCCC/C=C\C/C=C\CCCCCCCC(=O)OCC(COC(=O)CCC(OCCCCCCCC)OCCCCCCCC)COC(=O)OCCCN(C)CC (stereo not drawn) [Compound 20, 3-((4,4-bis(octyloxy)butanoyl)oxy)-2-((((3-(ethyl(methyl)amino)propoxy)carbonyl)oxy)methyl)propyl (9Z,12Z)-octadeca-9,12-dienoate] | 96% | 64.34 nm | 0.023 | 79.25 nm | 46% | 476 µg/mL | 
5 | CCCCC/C=C\C/C=C\CCCCCCCC(=O)OCC(COC(=O)CCC(OCCCCCCCC)OCCCCCCCC)COC(=O)OCCCN(C(C)C)C(C)C (stereo not drawn) [Compound 21, 3-((4,4-bis(octyloxy)butanoyl)oxy)-2-((((3-(diisopropylamino)propoxy)carbonyl)oxy)methyl)propyl (9Z,12Z)-octadeca-9,12-dienoate] | 94% | 59.75 nm | 0.039 | 75.41 nm | 87% | 897 µg/mL | 
6 | CCCCC/C=C\C/C=C\CCCCCCCC(=O)OCC(COC(=O)CCC(OCCCCCCCC)OCCCCCCCC)COC(=O)OCCC(C)N(C)C (stereo not drawn) [Compound 22, 3-((4,4-bis(octyloxy)butanoyl)oxy)-2-((((3-(dimethylamino)butoxy)carbonyl)oxy)methyl)propyl (9Z,12Z)-octadeca-9,12-dienoate] | 98% | 73.96 nm | 0.004 | 89.43 nm | 61% | 634 µg/mL | 
7 | CCCCC/C=C\C/C=C\CCCCCCCC(=O)OCC(COC(=O)CCC(OCCCCCCCC)OCCCCCCCC)COC(=O)OCCCN1CCCCCC1 (stereo not drawn) [Compound 23, 3-(((3-(azepan-1-yl)propoxy)carbonyl)oxy)-2-(((4,4-bis(octyloxy)butanoyl)oxy)methyl)propyl (9Z,12Z)-octadeca-9,12-dienoate] | 95% | 56.62 nm | 0.068 | 74.78 nm | 83% | 716 µg/mL | 
8 | CCCCC/C=C\C/C=C\CCCCCCCC(=O)OCC(COC(=O)CCC(OCCCCCCCC)OCCCCCCCC)COC(=O)C1(C)CCN(C)C1 (stereo not drawn) [Compound 30, 3-((4,4-bis(octyloxy)butanoyl)oxy)-2-((((9Z,12Z)-octadeca-9,12-dienoyl)oxy)methyl)propyl 1,3-dimethylpyrrolidine-3-carboxylate] |  |  |  |  |  |  | 6.06
9 | CCCCC/C=C\C/C=C\CCCCCCCC(=O)OCC(COC(=O)CCC(OCCCCCCCC)OCCCCCCCC)COC(=O)N(C)CCN(CC)CC (stereo not drawn) [Compound 33, 3-((4,4-bis(octyloxy)butanoyl)oxy)-2-((((2-(diethylamino)ethyl)(methyl)carbamoyl)oxy)methyl)propyl (9Z,12Z)-octadeca-9,12-dienoate] |  |  |  |  |  |  | 6.03
10 | CCCCC/C=C\C/C=C\CCCCCCCC(=O)OCC(COC(=O)CCC(OCCCCCCCC)OCCCCCCCC)COC(=O)NCCN(C)C (stereo not drawn) [Compound 34, 3-((4,4-bis(octyloxy)butanoyl)oxy)-2-((((2-(dimethylamino)ethyl)carbamoyl)oxy)methyl)propyl (9Z,12Z)-octadeca-9,12-dienoate] |  |  |  |  |  |  | 7.84
11 | CCCCC/C=C\C/C=C\CCCCCCCC(=O)OCC(COC(=O)CCC(OCCCCCCCC)OCCCCCCCC)COC(=O)NCCN(C)CC (stereo not drawn) [Compound 35, 3-((4,4-bis(octyloxy)butanoyl)oxy)-2-((((2-(ethyl(methyl)amino)ethyl)carbamoyl)oxy)methyl)propyl (9Z,12Z)-octadeca-9,12-dienoate] |  |  |  |  |  |  | 7.39
12 | CCCCC/C=C\C/C=C\CCCCCCCC(=O)OCC(COC(=O)CCC(OCCCCCCCC)OCCCCCCCC)COC(=O)NCC1CCN(C)C1 (stereo not drawn) [Compound 43, 3-((4,4-bis(octyloxy)butanoyl)oxy)-2-(((((1-methylpyrrolidin-3-yl)methyl)carbamoyl)oxy)methyl)propyl (9Z,12Z)-octadeca-9,12-dienoate] |  |  |  |  |  |  | 8.6
13 | CCCCC/C=C\C/C=C\CCCCCCCC(=O)OCC(COC(=O)CCC(OCCCCCCCC)OCCCCCCCC)COC(=O)NCCCN1CCC(O)CC1 (stereo not drawn) [Compound 46, 3-((4,4-bis(octyloxy)butanoyl)oxy)-2-((((3-(4-hydroxypiperidin-1-yl)propyl)carbamoyl)oxy)methyl)propyl (9Z,12Z)-octadeca-9,12-dienoate] |  |  |  |  |  |  | 8.9
